Measurements as given in the NIST ThermoML archive (doi:10.1021/je700521t).

Experiment: xn = mol fraction of the nth substance listed
Settings: 101 kPa, Liquid

CCCCn1cc[n+](C)c1.[O-][Cl+3]([O-])([O-])[O-] [1-butyl-3-methylimidazolium perchlorate] + CCO
mass density [kg/m3], Vibrating tube method
Settings	x2 = 0.1	x2 = 0.165	x2 = 0.291	x2 = 0.401	x2 = 0.479	x2 = 0.592	x2 = 0.637	x2 = 0.79	x2 = 0.86
283.15 K	1249.3	1239.4	1216.6	1192	1173.6	–	–	–	–
288.15 K	1245.7	1235.7	1212.8	1188.3	1169.8	–	–	–	–
293.15 K	1242.1	1231.9	1208.9	1184.6	1166.1	1129.6	1110.4	1022.6	960.5
298.15 K	1238.6	1228	1205	1180.9	1162.2	1125.8	1104.6	1018.7	956.7
303.15 K	1235.1	1224.1	1199.8	1177.2	1158.3	1122	1102.7	1014.8	952.7
308.15 K	1231.7	1220.3	1195.8	1173.6	–	1117.5	1100.6	1011	948.7
313.15 K	1228.2	1216.2	1193.1	1169.9	–	1114.8	1096.7	1007	944.6
318.15 K	1224.7	1211.2	1188.9	–	–	–	–	–	–
323.15 K	1221.3	1207.2	1184.7	–	–	–	–	–	–
328.15 K	1217.8	1201	1180.1	–	–	–	–	–	–
333.15 K	1214.4	1198.7	1175.2	–	–	–	–	–	–
338.15 K	1211	1195.4	1169.3	–	–	–	–	–	–
343.15 K	1207.5	1190.3	1159.4	–	–	–	–	–	–

viscosity [mPa·s]
Settings	x2 = 0.1	x2 = 0.165	x2 = 0.291	x2 = 0.401	x2 = 0.479	x2 = 0.592	x2 = 0.637	x2 = 0.79	x2 = 0.86
283.15 K	255.52	181.83	87.42	50.26	35.48	–	–	–	–
288.15 K	188.52	136.86	68.04	40.89	29.17	–	–	–	–
293.15 K	142.2	105.92	54.9	33.49	24.41	12.98	11.66	5.38	4.96
298.15 K	109.99	83.35	44.84	27.92	20.67	11.13	10.06	4.62	4.22
303.15 K	86.43	66.48	36.75	23.38	17.56	9.6	8.71	4.03	3.59
308.15 K	69.74	54.25	30.63	20.06	–	8.48	7.52	3.74	3.16
313.15 K	56.98	44.76	26.13	17.38	–	7.43	6.66	3.46	2.8
318.15 K	46.98	37.2	22.14	–	–	–	–	–	–
323.15 K	39.45	31.56	19.51	–	–	–	–	–	–
328.15 K	33.69	27.02	17.16	–	–	–	–	–	–
333.15 K	28.86	23.5	15.43	–	–	–	–	–	–
338.15 K	24.94	20.45	13.79	–	–	–	–	–	–
343.15 K	21.69	18.12	–	–	–	–	–	–	–

CCCCCCCC[n+]1ccn(C)c1.F[B-](F)(F)F [1-methyl-3-octylimidazolium tetrafluoroborate] + CCO
Settings	mass density [kg/m3]	viscosity [mPa·s]
283.15 K, x2 = 0.081	1122.9	718.47
283.15 K, x2 = 0.161	1118	492.73
283.15 K, x2 = 0.315	1098.7	167.49
283.15 K, x2 = 0.511	1064.7	51.57
283.15 K, x2 = 0.612	1039.7	27.12
283.15 K, x2 = 0.753	991.3	12.45
288.15 K, x2 = 0.081	1119.4	507.18
288.15 K, x2 = 0.161	1114.5	354.89
288.15 K, x2 = 0.315	1095.2	127.69
288.15 K, x2 = 0.511	1061.3	41.43
288.15 K, x2 = 0.612	1036	22.05
288.15 K, x2 = 0.753	987.5	10.36
293.15 K, x2 = 0.081	1115.9	366.59
293.15 K, x2 = 0.161	1111	261.54
293.15 K, x2 = 0.315	1091.8	98.92
293.15 K, x2 = 0.511	1057.8	35.28
293.15 K, x2 = 0.612	1032.2	18.24
293.15 K, x2 = 0.753	983.6	8.79
298.15 K, x2 = 0.081	1112.4	268.93
298.15 K, x2 = 0.161	1107.5	194.74
298.15 K, x2 = 0.315	1088.3	78.63
298.15 K, x2 = 0.511	1054.2	28.87
298.15 K, x2 = 0.612	1028.4	15.35
298.15 K, x2 = 0.753	979.7	7.53
303.15 K, x2 = 0.081	1108.9	203.35
303.15 K, x2 = 0.161	1104	150.36
303.15 K, x2 = 0.315	1084.8	63.33
303.15 K, x2 = 0.511	1050.6	23.94
303.15 K, x2 = 0.612	1024.7	12.98
303.15 K, x2 = 0.753	975.7	6.51
308.15 K, x2 = 0.081	1105.5	156.29
308.15 K, x2 = 0.161	1100.7	117.36
308.15 K, x2 = 0.315	1081.3	51.59
308.15 K, x2 = 0.511	1046.9	20.13
308.15 K, x2 = 0.612	1020.9	11.16
308.15 K, x2 = 0.753	971.8	5.66
313.15 K, x2 = 0.081	1102.2	123.27
313.15 K, x2 = 0.161	1097.3	93.2
313.15 K, x2 = 0.315	1077.8	42.48
313.15 K, x2 = 0.511	1043.2	17.09
313.15 K, x2 = 0.612	1017.2	9.61
313.15 K, x2 = 0.753	968	4.96
318.15 K, x2 = 0.081	1098.8	97.69
318.15 K, x2 = 0.161	1093.9	75.37
318.15 K, x2 = 0.315	1074.3	35.84
318.15 K, x2 = 0.511	1039.3	14.67
318.15 K, x2 = 0.612	1013.4	8.39
318.15 K, x2 = 0.753	964.1	4.38
323.15 K, x2 = 0.081	1095.4	79.43
323.15 K, x2 = 0.161	1090.5	61.66
323.15 K, x2 = 0.315	1070.9	30.38
323.15 K, x2 = 0.511	1034.9	12.72
323.15 K, x2 = 0.612	1009.7	7.39
323.15 K, x2 = 0.753	960.2	3.89
328.15 K, x2 = 0.081	1092.1	65.03
328.15 K, x2 = 0.161	1087.1	51.12
328.15 K, x2 = 0.315	1067.4	26.04
328.15 K, x2 = 0.511	1030.3	11.1
328.15 K, x2 = 0.612	1005.9	6.55
328.15 K, x2 = 0.753	956.4	3.5
333.15 K, x2 = 0.081	1088.7	54.15
333.15 K, x2 = 0.161	1083.7	42.99
333.15 K, x2 = 0.315	1064	22.54
333.15 K, x2 = 0.511	1028.7	9.77
333.15 K, x2 = 0.612	1002.2	5.8
333.15 K, x2 = 0.753	952.5	3.17
338.15 K, x2 = 0.081	1085.4	45.46
338.15 K, x2 = 0.161	1080.3	36.47
338.15 K, x2 = 0.315	1060.5	19.73
338.15 K, x2 = 0.511	1025.2	8.65
338.15 K, x2 = 0.612	998.5	5.18
338.15 K, x2 = 0.753	948.6	2.89
343.15 K, x2 = 0.081	1082.1	39.03
343.15 K, x2 = 0.161	1077	31.51
343.15 K, x2 = 0.315	1057.1	17.42
343.15 K, x2 = 0.511	1021.3	7.74
343.15 K, x2 = 0.612	994.7	4.7
343.15 K, x2 = 0.753	944.7	2.65
